Results on twelve molecules are retold here after US9000012B2 (priority 2009, dated 2015).

One series deals with Phytophthora infestans. The class given is in vivo, Phytophthora infestans on tomato. The note with it: preventive spray on young tomato plants, 500 ppm of active ingredient, inoculated one day after treatment, evaluated 7 days after inoculation; 0% = untreated control, 100% = no disease.
Series [1] can be described thus: logP of the compounds of table 1. The series is classed as physicochemical.
A short description of series [2]: logP of the compounds of table 1. The series is classed as physicochemical. The source holds these as a separate data set.

Read-outs that look alike come from different tables or passages of the source.

In general, logP refers to the decadic logarithm of the partition coefficient of the neutral form, usually between octanol and water. Lower therefore signals lower lipophilicity. In turn, `CNC(=O)C(=NOCc1cccc(NC(=O)C2COc3ccccc3O2)n1)c1ccccc1` (centres unmarked) [Example 75] had an Efficacy in the series with Phytophthora infestans of 85%. In addition, the logP in series [1] amounted to 3.06.
Taken in the same sequence, the figures for `CN(C)C(=O)C(=NOCc1cccc(NC(=O)OC(C)(C)C)n1)c1ccccc1` [Example 98] were 85% and 3.37.
In the series on Phytophthora infestans, `CCCCCOC(=O)Nc1cccc(CON=C(C(=O)N(C)C)c2ccccc2)n1` [Example 99] had an Efficacy of 95%. Also, the lipophilicity (logP) in series [1] came to 3.96.
Regarding `C#CCCOC(=O)Nc1cccc(CON=C(C(=O)N(C)C)c2ccccc2)n1` [Example 100], in the series on Phytophthora infestans, the Efficacy is recorded as 70%. The logP in series [1] amounted to 1.83.
With `C#CCC(C)OC(=O)Nc1cccc(CON=C(C(=O)N(C)C)c2ccccc2)n1` (centres unmarked) [Example 101], the Efficacy with Phytophthora infestans was 95%. Also, the log partition coefficient (logP) in series [1] came out at 3.07.
As to `CN(C)C(=O)C(=NOCc1cccc(NC(=O)C2COc3ccccc3O2)n1)c1ccccc1` (centres unmarked) [Example 109], the Efficacy in the series on Phytophthora infestans is listed as 98%. This molecule also displayed a logP in series [1] of 3.42.
Take `CN(C)C(=O)C(=NOCc1cccc(NC(=O)C(F)(F)Oc2ccccc2)n1)c1ccccc1` [Example 110]: the Efficacy in the series with Phytophthora infestans was determined as 70%. The same molecule gave a lipophilicity (logP) in series [1] of 3.73.
Taken in the same sequence, the figures for `CC(Oc1ccccc1)C(=O)Nc1cccc(CON=C(C(=O)N(C)C)c2ccccc2)n1` (centres unmarked) [Example 111] were 92% and 3.50.
In the case of `COc1ccc(CC(=O)Nc2cccc(CON=C(C(=O)N(C)C)c3ccccc3)n2)cc1` [Example 112], the Efficacy in the series with Phytophthora infestans turned out to be 100%. In series [1], this molecule showed a log partition coefficient (logP) of 3.00.
In the series on Phytophthora infestans, `CN(C)C(=O)C(=NOCc1csc(NC(=O)C2COc3ccccc3O2)n1)c1ccccc1` (centres unmarked) [Example 129] came in with an Efficacy of 92%. This molecule showed a logP in series [1] of 3.15.
Taken in the same sequence, the figures for `CC(Oc1ccccc1)C(=O)Nc1nc(CON=C(C(=O)N(C)C)c2ccccc2)cs1` (centres unmarked) [Example 130] were 100% and 3.21.
In series [2], `C#CCCOC(=O)Nc1cccc(CON=C(C(N)=S)c2ccccc2)n1` [compound 310] showed a logP of 2.75.
